From patent US7071168B2, “Anti-cancer compounds and methods related thereto” (The Regents of the University of Colorado, priority 1998, dated 2006)

Tested on: bradykinin response of isolated guinea pig ileum
Test: Anti-bradykinin activity on isolated guinea pig ileum
Conditions: higher numbers indicate higher potency
Method: In general, Anti-bradykinin activity was determined by the classical guinea pig ileum assay and on Chinese hamster ovary (CHO) cells expressing cloned human bradykinin B2 receptors. Anti-tumor activity was determined on cultured human cancer cell lines using the standard tetrazolium (MTT) assay.
Male Hartley guinea pigs that had been deprived of food overnight were sacrificed, and sections of terminal ileum, 25 mm in length, were dissected, attached to tissue holders and immersed in 10 ml tissue baths containing Krebs' solution bubbled with 95% O2/5% CO2. Tissues were placed under 1 g tension and incubated for 1 h equilibration. Concentration-effect curves were constructed to bradykinin in the absence and presence of new compounds.

[1] = isolated guinea pig ileum, pD2 of bradykinin is 7.4

Compound | GPI: pA2 for bradykinin antagonist activity on isolated guinea pig ileum [1] | GPI: pA2 for bradykinin antagonist activity on isolated guinea pig ileum (Table 1)
O=C(O)CC(NC(=O)C(Cc1ccc2ccccc2c1)NC(=NC1CCCCC1)NC1CCCCC1)C(=O)NC1CN2CCC1CC2 (single isomer, unassigned) [M336-1] | 5.1 | 
O=C(O)CC(NC(=O)C(Cc1ccc2ccccc2c1)NC(=NC1CCCCC1)NC1CCCCC1)C(=O)NC1CN2CCC1CC2 (single isomer, unassigned) [M336-2] | 5.4 | 
N=C(N)NCCCCCC(=O)NC(Cc1ccc2ccccc2c1)C(=O)NC(Cc1ccc(NC(=N)N)cc1)C(=O)O (stereo not shown) [M8] | Inact | 
O=C(O)Cc1ccc(NC(=O)C(Cc2ccc3ccccc3c2)NC(=NC2CCCCC2)NC2CCCCC2)cc1 (stereo not shown) [M30] | 5.4 | 
N=C(N)NC(Cc1ccc2ccccc2c1)C(=O)Nc1ccc(CC(=O)O)cc1 (stereo not shown) [M32] | 4.8 | 
O=C(O)Cc1ccc(NC(=O)C(Cc2ccc3ccccc3c2)NC(=NC2CCCCC2)NC2CCCCC2)cc1 (stereo not shown) [M36] | 5.0 | 
N=C(N)NC(Cc1ccc2ccccc2c1)C(=O)Nc1ccc(CC(=O)O)cc1 (stereo not shown) [M38] | 4.9 | 
O=C(O)Cc1ccc(NC(=O)C(NC(=NC2CCCCC2)NC2CCCCC2)C2Cc3ccccc3C2)cc1 (stereo not shown) [M72-1] | 4.7 | 
O=C(O)c1cccc(NC(=O)C(Cc2ccc3ccccc3c2)NC(=NC2CCCCC2)NC2CCCCC2)c1 (stereo not shown) [M76] | 4.9 | 
Nc1cc(NC(=O)C(Cc2ccc3ccccc3c2)NC(=NC2CCCCC2)NC2CCCCC2)cc(C(=O)O)c1 (stereo not shown) [M92-1] | 5.0 | 
N=C(N)Nc1cc(NC(=O)C(Cc2ccc3ccccc3c2)NC(=NC2CCCCC2)NC2CCCCC2)cc(C(=O)O)c1 (stereo not shown) [M92-2] | 4.8 | 
O=C(O)c1cc(NC(=O)C(Cc2ccc3ccccc3c2)NC(=NC2CCCCC2)NC2CCCCC2)cc(NC(=NC2CCCCC2)NC2CCCCC2)c1 (stereo not shown) [M92-4] | 5.0 | 
O=C(O)C(Cc1cccnc1)NC(=O)C(Cc1ccc2ccccc2c1)NC(=NC1CCCCC1)NC1CCCCC1 (stereo not shown) [M104] | 4.9 | 
O=C(O)c1cccc(NC(=O)C(Cc2ccc3ccccc3c2)NC(=NC2CCCCC2)NC2CCCCC2)c1 (stereo not shown) [M112] | 5.1 | 
O=C(O)c1ccc(NC(=O)C(Cc2ccc3ccccc3c2)NC(=NC2CCCCC2)NC2CCCCC2)cc1 (stereo not shown) [M120] | 4.7 | 
N=C(Nc1ccc(CC(=O)Nc2cccc(C(=O)O)c2)cc1)NC1CCCCC1 [M122-1] | 5.0 | 
O=C(Cc1ccc(NC(=NC2CCCCC2)NC2CCCCC2)cc1)Nc1cccc(C(=O)O)c1 [M122-2] | 4.6 | 
COc1cc(C=CC(=O)NC(Cc2c(F)c(F)c(F)c(F)c2F)C(=O)NC(Cc2cccnc2)C(=O)O)cc(OC)c1O (stereo not shown) [M136] | Inact | 
O=C(O)CC(NC(=O)C(Cc1ccc2ccccc2c1)NC(=NC1CCCCC1)NC1CCCCC1)C(=O)O (stereo not shown) [M162] | 4.9 | 
N=C(Nc1ccc(CC(NC(=O)c2ccc3ccccc3c2)C(=O)O)cc1)NC1CCCCC1 (stereo not shown) [M168-1] | 4.8 | 

Compound | GPI: pA2 for bradykinin antagonist activity on isolated guinea pig ileum [1] | GPI: pA2 for bradykinin antagonist activity on isolated guinea pig ileum (Table 1)
O=C(NC(Cc1ccc(NC(=NC2CCCCC2)NC2CCCCC2)cc1)C(=O)O)c1ccc2ccccc2c1 (stereo not shown) [M168-2] | 4.7 | 
O=C(NC(CNC(=O)C(Cc1ccc2ccccc2c1)NC(=NC1CCCCC1)NC1CCCCC1)C(=O)O)C1CCNCC1 (stereo not shown) [M172] | 4.9 | 
O=C(O)CC(NC(=NC1CCCCC1)NC1CCCCC1)C(=O)NC1CN2CCC1CC2 (stereo not shown) [M174] | Inact | 
O=C(C=Cc1c(F)c(F)c(F)c(F)c1F)Nc1ccc(C(=O)N[C@@H](Cc2ccc3ccccc3c2)C(=O)O)cc1 [M180] | 5.1 | 
O=C(C[C@H](NC(=O)[C@H](Cc1ccc2ccccc2c1)NC(=NC1CCCCC1)NC1CCCCC1)C(=O)O)NC1CN2CCC1CC2 (stereo partly shown) [M188B] | 5.5 | 
O=C(C=Cc1c(F)c(F)c(F)c(F)c1F)NCC(=O)Nc1cccc(C(=O)N[C@@H](Cc2ccc3ccccc3c2)C(=O)O)c1 [M202] | 5.1 | 
CC(=O)Nc1ccc(C=CC(=O)NCC(=O)Nc2cccc(C(=O)NC(Cc3ccc4ccccc4c3)C(=O)O)c2)cc1 (stereo not shown) [M204] | 5.0 | 
CC1(C)CC(NC(=O)[C@H](Cc2ccc3ccccc3c2)NC(=O)C23CC4CC(CC(C4)C2)C3)CC(C)(C)N1 [M250] | 5.2 | 
CC1(C)CC(NC(=O)[C@@H](NC(=NC2CCCCC2)NC2CCCCC2)C2Cc3ccccc3C2)CC(C)(C)N1Cc1ccccc1 [M258] | 5.0 | 
CC1(C)C=C(C(=O)NCCNC(=O)[C@H](Cc2ccc3ccccc3c2)NC(=NC2CCCCC2)NC2CCCCC2)C(C)(C)N1 [M270] | 6.1 | 
O=C(C=Cc1ccc(NC(=NC2CCCCC2)NC2CCCCC2)cc1)NCC(=O)Nc1cccc(C(=O)NC(Cc2ccc3ccccc3c2)C(=O)O)c1 (stereo not shown) [M340] | 4.8 | 
CC1(C)CC(NC(=O)C(CC(=O)O)NC(=O)C(Cc2ccc3ccccc3c2)NC(=NC2CCCCC2)NC2CCCCC2)CC(C)(C)N1 (stereo not shown) [M342] | 5.4 | 
CC1(C)CC(NC(=O)C(CCC(=O)O)NC(=O)C(Cc2ccc3ccccc3c2)NC(=NC2CCCCC2)NC2CCCCC2)CC(C)(C)N1 (stereo not shown) [M350] | 5.0 | 
N=C(N)Nc1ccc(CC(NC(=O)C(Cc2ccc3ccccc3c2)NC(=NC2CCCCC2)NC2CCCCC2)C(=O)O)cc1 (stereo not shown) [M354] | 5.2 | 
CC1(C)CC(NC(=O)C(CC(=O)O)NC(=O)Cc2ccc(NC(=NC3CCCCC3)NC3CCCCC3)cc2)CC(C)(C)N1 (stereo not shown) [M362] | 4.9 | 
CC1(C)CC(NC(=O)C(CC(=O)O)NC(=O)Cc2ccc(NC(=O)C=Cc3c(F)c(F)c(F)c(F)c3F)cc2)CC(C)(C)N1 (stereo not shown) [M364] | 4.7 | 
CC1(C)CC(NC(=O)C(CC(=O)O)NC(=O)Cc2ccc(NC(=O)C=Cc3ccc(C(F)(F)F)cc3)cc2)CC(C)(C)N1 (stereo not shown) [M368] | 4.7 | 
N=C(N)NCCCC(NC(=O)C=Cc1c(F)c(F)c(F)c(F)c1F)C(=O)O (stereo not shown) [M370, F5c-Arg] |  | 4.8
N=C(N)NCCCC(NC(=O)C=Cc1ccc(C(F)(F)F)cc1)C(=O)O (stereo not shown) [M374, Tfmc-Arg] |  | 4.6
CN1CCN(NC(=O)[C@H](Cc2ccc3ccccc3c2)NC(=O)C=Cc2ccc(NC(=O)CCCCCCCCCCC(=O)Nc3ccc(C=CC(=O)N[C@@H](Cc4ccc5ccccc5c4)C(=O)NN4CCN(C)CC4)cc3)cc2)CC1 [M480-2] | 5.6 | 

Compound | GPI: pA2 for bradykinin antagonist activity on isolated guinea pig ileum [1] | GPI: pA2 for bradykinin antagonist activity on isolated guinea pig ileum (Table 1)
Aaa-DArg-Arg-Pro-Hyp-Gly-(D,L)DMF-Ser-DTic-Oic-Arg [B9126-2] |  | 7.3
Aaa-DArg-Arg-Pro-Hyp-Gly-(D,L)DMF-Ser-DTic-Oic-Arg [B9126] |  | 6.4
Aaa-DIgl-hPhe-Arg [M772] |  | 4.9
Aaa-DTic-hPhe-Arg [M764] |  | 4.8
Ac-PaF(Dcg)-p-ABz-Arg [M146-2] |  | 4.9
Ac-PaF(Mcg)-Arg [M118-1] |  | 4.9
Ac-PaF(Mcg)-p-ABz-Arg [M146-1] |  | Inact
Ac-Pac-Gly-m-Abz-2-Nal-Arg [M198] |  | 5.1
Ac-PdF-Arg [M118-3] |  | 5.4
Aca-DArg-Arg-Pro-Hyp-Gly-Thi-Ser-(D,L)Igl-Oic-Arg [B9224-2] |  | 8.4
Arg-Eac-DIgl-Ana-Arg [M406] |  | Inact
DArg-Arg-NMF-Hyp-Gly-Thi-Ser-DIgl-Oic-Arg [B9966] |  | 6.9
DArg-Arg-Nig-Hyp-Gly-Igl-Ser-DIgl-Oic-Arg [B9960] |  | 7.7
DArg-Arg-Pro-Hyp-Gly-CpG-Ser-DCpG-CpG-Arg [B8838] |  | 7.0
DArg-Arg-Pro-Hyp-Gly-Igl-Ser-DIgl-Nc7G-Arg [B10010] |  | 7.7
DArg-Arg-Pro-Hyp-Gly-Phe-Ser-DCpG-CpG-Arg [B8840] |  | 6.8
DArg-Arg-Pro-Hyp-Gly-Thi-Ser-CpG-DCpG-DArg [B8858] |  | 5.2
DArg-Arg-Pro-Hyp-Gly-Thi-Ser-DTic-Nc6G-Arg [B10014] |  | 7.6
